Results: publication PMC7064328 (Environmental Health Perspectives, 2020)

Test system: placenta
Test: Placental histopathology
Type: in vivo, mouse (CD-1)
Experimental: Dam livers, kidneys, and placentas were trimmed and embedded by the NIEHS Mouse Embryo Phenotyping Core. Tissues collected at necropsy were fixed in 4% PFA for 72 h and paraffin embedded, and 5-μm sections were prepared and stained with hematoxylin and eosin (H&E). Pathology was evaluated and a pathology review conducted by S.A.E. Diplomate American College of Veterinary Pathologists (DACVP). Pathology reviews were conducted as an informed approach analysis [e.g., nonblinded analysis; see Sills et al. ([2019])]. Select tissue slides were scanned using the AT2 Scanner (Aperio). Images were then captured for publication using the ImageScope software; version 12.3.0.5056 (Aperio). Serum and urine obtained from dams in Block 2 were analyzed using the AU480 clinical chemistry analyzer (Beckman Coulter Inc.). Reagents and calibration standards used to measure alkaline phosphatase (ALP), alanine aminotransferase (ALT), aspartate aminotransferase (AST), blood urea nitrogen (BUN), serum creatinine, urine creatinine, glucose (Glu), total protein (TP), triglyceride (Trig), high-density lipoprotein (HDL), cholesterol (Chol), and albumin (ALB) were purchased from Beckman Coulter Inc. Reagents for sorbitol dehydrogenase (SDH), total bile acid (TBA), and micro-TP were purchased from Sekisui Diagnostics. The reagent used to measure low-density lipoprotein (LDL) was purchased form Diazyme Laboratories.
Histopathological lesions of evaluated placenta were evaluated using two statistical approaches. The first approach assumed the absence of litter effects and considered each placenta evaluated within a treatment group to be a totally independent observation, regardless of its litter of origin. […] The second approach considered the litter as the biological unit and compared the relative incidence of placental lesions [e.g., percent within normal limits (WNL)] to adjust for differences in the total number of observations across litters within and between treatment groups. […] Both approaches were subjected to simultaneous tests for general linear hypotheses to correct for multiple comparisons using Tukey contrasts in the package multcomp ([Hothorn et al. 2009]).

## N.O=C(O)C(F)(OC(F)(F)C(F)(F)C(F)(F)F)C(F)(F)F (centres unmarked) [GenX, ammonium 2,3,3,3-tetrafluoro-2-(heptafluoropropoxy)propanoate]
E11.5, 2 mg/kg/d
  Early fibrin clot: No.: 1
  Labyrinth atrophy: %: 0%
  Labyrinth atrophy: No.: 0
  Labyrinth congestion: %: 0%
  Labyrinth congestion: No.: 0
  Labyrinth necrosis: %: 0%
  Labyrinth necrosis: No.: 0
  Mean WNL per litter (%): 95.6%
  Mean WNL ± SD per litter: 8.2 ± 2.8
  Mean abnormal per litter (%): 4.4%
  Mean abnormal ± SD per litter: 0.4 ± 0.9
  Other placental lesions: %: 2.3%
  Other placental lesions: No.: 1
  Placental nodule: %: 0%
  Placental nodule: No.: 0
  Placentas WNL: %: 95.3%
  Placentas WNL: No.: 41
  Placentas abnormal: %: 4.7%
  Placentas abnormal: No.: 2
E11.5, 10 mg/kg/d
  Early fibrin clot: %: 0%
  Early fibrin clot: No.: 0
  Labyrinth atrophy: %: 0%
  Labyrinth atrophy: No.: 0
  Labyrinth congestion: %: 0%
  Labyrinth congestion: No.: 0
  Labyrinth necrosis: %: 0%
  Labyrinth necrosis: No.: 0
  Mean WNL per litter (%): 97.1%
  Mean WNL ± SD per litter: 6.0 ± 3.1
  Mean abnormal per litter (%): 0%
  Mean abnormal ± SD per litter: 0 ± 0.0
  Other placental lesions: %: 0%
  Other placental lesions: No.: 0
  Placental nodule: %: 0%
  Placental nodule: No.: 0
  Placentas WNL: %: 100%
  Placentas WNL: No.: 30
  Placentas abnormal: %: 0.0%
  Placentas abnormal: No.: 0
E17.5, 2 mg/kg/d
  Early fibrin clot: %: 3.2%
  Early fibrin clot: No.: 1
  Labyrinth atrophy: %: 48.4%
  Labyrinth atrophy: No.: 15
  Labyrinth congestion: %: 3.2%
  Labyrinth congestion: No.: 1
  Labyrinth necrosis: %: 0%
  Labyrinth necrosis: No.: 0
  Mean WNL per litter (%): 51.7%
  Mean WNL ± SD per litter: 2.6 ± 2.8
  Mean abnormal per litter (%): 48.3%
  Mean abnormal ± SD per litter: 3.6 ± 3.6
  Other placental lesions: %: 0%
  Other placental lesions: No.: 0
  Placental nodule: %: 3.2%
  Placental nodule: No.: 1
  Placentas WNL: %: 41.9%
  Placentas WNL: No.: 13
  Placentas abnormal: %: 58.1%
  Placentas abnormal: No.: 18
E17.5, 10 mg/kg/d
  Early fibrin clot: %: 11.4%
  Early fibrin clot: No.: 4
  Labyrinth atrophy: %: 45.7%
  Labyrinth atrophy: No.: 16
  Labyrinth congestion: %: 22.9%
  Labyrinth congestion: No.: 8
  Labyrinth necrosis: %: 2.9%
  Labyrinth necrosis: No.: 1
  Mean WNL per litter (%): 12.0%
  Mean WNL ± SD per litter: 1.2 ± 2.7
  Mean abnormal per litter (%): 88.0%
  Mean abnormal ± SD per litter: 5.8 ± 3.0
  Other placental lesions: %: 0%
  Other placental lesions: No.: 0
  Placental nodule: %: 0%
  Placental nodule: No.: 0
  Placentas WNL: %: 17.1%
  Placentas WNL: No.: 6
  Placentas abnormal: %: 82.9%
  Placentas abnormal: No.: 29
This study
  Lowest dose tested resulting in adverse placental pathology: 2 mg/kg/d
